Where a SMILES comes first, the peptide text is derived from it. [ ]: non-standard residue; d: D form. The star is where a group is joined. Sta = CC(C)C[C@H](N)[C@@H](O)CC(=O)O; Isovaleryl = CC(C)CC(=O)*
What was measured:
[1] = tested on: cells of the line MDA-MB-231; test: cytotoxicity, cellular viability test MTT; type: cell-based, human; conditions: incubation of 5 days, 10^-5M
From the text: The cytotoxicity of this novel class of molecules has also been determined in cells of the line MDA-MB-231 by using a cellular viability diagnostic test, MTT.

[2] = tested on: cancerous cells (MDA-MB-231, MCF7, LNCaP, HCT116, SaOs2); test: cell growth / proliferation of tumoral lines, incubation for 5 days; type: cell-based; conditions: inhibitor alone
Description: FIG. 2 describes the cell growth (in percentage of number of cells with respect to a pepstatin control) of cancerous cells (mammary […] and MCF7, prostatics LNCaP, colic HCT116, osteoblastics SaOs2) as a function of their incubation for 5 days with 1 oligomer of AMPA (4497), pepstatin alone (Peps), [Val^1]-Pepstatin bonded to arginine (4567) and two conjugate inhibitors of cathepsin D-oligomer of AMPA bonded to an arginine residue (4564 and 4463). The negative percentages correspond to a reduction in the number of cells with respect to the initial cellular seeding.
FIG. 3 describes the cell growth (in percentage of number of cells with respect to a pepstatin control) of cancerous cells (MDA-MB-231, MCF7, LNCaP, HCT116, SaOs2) as a function of their incubation for 5 days with 1 oligomer of AMPA (4497), [Val^1]-Pepstatin bonded to conjugated arginine 5 (4567) and 4 [Val^1]-Pepstatin-oligomer of AMPA bonded to a lysine or arginine residue (4461, 4562, 4463, 4564). The negative percentages correspond to a reduction in the number of cells with respect to the initial cellular seeding.
The application of these vectors within the context of a tumoral pathology is now explored. […]

Structure (SMILES)	effect on cellular viability (MTT) [1]	effect on the proliferation of tumoral cells [2]
NC(=O)CN1C(=O)[C@H](NC(=O)CN2C(=O)[C@H](NC(=O)COCCOCCNC(=S)Nc3ccc4c(c3)C(=O)OC43c4ccc(O)cc4Oc4cc(O)ccc43)CSc3ccccc32)CSc2ccccc21 [JMV4131]	significant effect on cellular viability	–
CC(C)CC(=O)N[C@H](C(=O)N[C@H](C(=O)N[C@@H](CC(C)C)[C@@H](O)CC(=O)N[C@@H](C)C(=O)N[C@@H](CC(C)C)[C@@H](O)CC(=O)O)C(C)C)C(C)C [pepstatin A] (Isovaleryl-VV[Sta]A[Sta]-OH)	–	inactive

— patent US9061069B2, “Use of constrained peptide mimic oligomers as vectorization agents” (CENTRE NATIONAL DE LA RECHERCHE SCIENTIFIQUE, priority 2009, dated 2015)
